Reference: patent publication US10654828B2 (NOVARTIS AG, priority 2017, dated 2020)
Where two headings read alike, the source gives them in different places.

Experiments:
FoxO3a = FoxO3a inhibition: GFP-FoxO3a nuclear to cytoplasmic translocation reporter assay; assay type: cell-based; details: U2OS GFP-FoxO3a H212R cells, serum starved overnight, compound 30 minutes, ratio of nuclear to cytosolic GFP intensity, DMSO control 0%, read-out: FoxO AC50
Description: (§1) Phosphorylation of AKT on S473 and FoxO3a nuclear to cytoplasmic translocation were used as readouts of PI3K/Akt/mTOR pathway activation downstream of growth factor signaling.
(§2) Reporter cell line. U2OS GFP-FoxO3a H212R reporter cell line was established by transducing U2OS cells with the retroviral plasmid pLEGFP-C1 containing FoxO3a H212R transgene and selecting for G418 resistant clones.
(§3) Reporter assay. U2OS GFP-FoxO3a H212R cells were plated in 384-well plates at 4000 cells per well in 30 microliters of McCoy's 5 A medium containing 10% FBS. On day 1 the cells were washed with serum free medium and serum starved overnight. On day 2 the cells were treated with different doses of the compounds for 30 minutes, fixed with 4% Paraformaldehyde for 1 hour and stained with Phospho-AKT (Ser473) antibody (Cell Signaling Technology, catalog #4060) overnight at 4 degrees Celsius. After nuclei staining with Hoechst 33342 (Life Technologies, catalog # H3570) the plates were imaged with InCell 2000 (GE Healthcare Bio-Sciences). FoxO3a inhibition activity is calculated as the ratio of nuclear to cytosolic GFP intensity in percent. AKT activation is measured as the total cellular intensity of Phospho-AKT antibody staining in percent. DMSO control is set as 0% activity.

AKT = AKT activation: Phospho-AKT (Ser473) antibody staining in reporter cells; assay type: cell-based; details: U2OS GFP-FoxO3a H212R cells, serum starved overnight, compound 30 minutes, total cellular intensity of Phospho-AKT (Ser473) staining, DMSO control 0%
Description: as §1, §2, §3

SMILES | AC50 (FoxO3a; Homo sapiens, U2OS, 0.5 h) [nM] | AC50 (AKT; Homo sapiens, U2OS, 0.5 h) [nM] | AC50 (FoxO3a) [nM] | AC50 (AKT) [nM]
Cc1cc(C(N)=O)nn1-c1ccc2c(ccn2Cc2ccc(-c3ccc(N(C)C)nc3)cc2)c1 [Example 1-23, 1-(1-(4-(6-(dimethylamino)pyridin-3-yl)benzyl)-1H-indol-5-yl)-5-methyl-1H-pyrazole-3-carboxamide] | 93 | 293 | – | –
Cc1cc(C(N)=O)nn1-c1ccc2c(ccn2Cc2ccc(C3=CCN(C)CC3C)cc2)c1 (single isomer, unassigned) [Example 17-2, 1-(1-(4-(1,3-dimethyl-1,2,3,6-tetrahydropyridin-4-yl)benzyl)-1H-indol-5-yl)-5-methyl-1H-pyrazole-3-carboxamide] | – | – | 47 | 123
Cc1cc(C(N)=O)nn1-c1ccc2c(ccn2Cc2ccc(C3=CCCN(C)C3)cc2)c1 [Example 1-8, 5-methyl-1-(1-(4-(1-methyl-1,2,5,6-tetrahydropyridin-3-yl)benzyl)-1H-indol-5-yl)-1H-pyrazole-3-carboxamide] | 517 | > 10000 | – | –
Cc1cc(C(N)=O)nn1-c1ccc2c(ccn2Cc2ccc(C3CCCN(C)CC3)cc2)c1 (single isomer, unassigned) [Example 29-1, 5-methyl-1-(1-(4-(1-methylazepan-4-yl)benzyl)-1H-indol-5-yl)-1H-pyrazole-3-carboxamide] | 483 | 1690 | – | –
Cc1cc(C(N)=O)nn1-c1ccc2c(ccn2Cc2ccc(NC3CCN(C)C3)cc2)c1 (single isomer, unassigned) [Example 37-2, 5-methyl-1-(1-(4-((1-methylpyrrolidin-3-yl)amino)benzyl)-1H-indol-5-yl)-1H-pyrazole-3-carboxamide] | – | – | 928 | 4080
Cc1cc(C(N)=O)nn1-c1ccc2c(c1)c(CCCO)cn2Cc1ccc(-c2ccc(S(C)(=O)=O)cc2)cc1 [Example 22, 1-(3-(3-hydroxypropyl)-1-((4′-(methylsulfonyl)-[1,1′-biphenyl]-4-yl)methyl)-1H-indol-5-yl)-5-methyl-1H-pyrazole-3-carboxamide] | 32 | 81 | – | –
Cc1cc(C(N)=O)nn1-c1ccc2c(ccn2Cc2ccc(-c3cnc(N)nc3)cc2)c1 [Example 1-29, 1-(1-(4-(2-aminopyrimidin-5-yl)benzyl)-1H-indol-5-yl)-5-methyl-1H-pyrazole-3-carboxamide] | 340 | 774 | – | –
Cc1cc(C(N)=O)nn1-c1ccc2c(ccn2Cc2ccc(CC3CCN(C)C3)cc2)c1 (racemic) [Example 31, rac-5-methyl-1-(1-(4-((1-methylpyrrolidin-3-yl)methyl)benzyl)-1H-indol-5-yl)-1H-pyrazole-3-carboxamide] | 350 | 747 | – | –
Cc1cc(C(N)=O)nn1-c1ccc2c(ccn2Cc2ccc(N3CC4CN(C)CC4C3)cc2)c1 (stereo not shown) [Example 11-3, 5-methyl-1-(1-(4-(5-methylhexahydropyrrolo[3,4-c]pyrrol-2(1H)-yl)benzyl)-1H-indol-5-yl)-1H-pyrazole-3-carboxamide] | 1160 | 2970 | – | –
Cc1cc(C(N)=O)nn1-c1ccc2c(ccn2Cc2ccc(-c3ccc(C(=O)N(C)C)cc3)cc2)c1 [Example 1-35, 1-(1-((4′-(dimethylcarbamoyl)-[1,1′-biphenyl]-4-yl)methyl)-1H-indol-5-yl)-5-methyl-1H-pyrazole-3-carboxamide] | 60 | 217 | – | –
Cc1cc(C(N)=O)nn1-c1ccc2c(ccn2Cc2ccc(-c3cnc4[nH]ccc4c3)cc2)c1 [Example 1-16, 1-(1-(4-(1H-pyrrolo[2,3-b]pyridin-5-yl)benzyl)-1H-indol-5-yl)-5-methyl-1H-pyrazole-3-carboxamide] | 147 | 451 | – | –
Cc1cc(C(N)=O)nn1-c1ccc2c(ccn2Cc2ccc(-c3ccc4cnccc4c3)cc2)c1 [Example 1-18, 1-(1-(4-(isoquinolin-6-yl)benzyl)-1H-indol-5-yl)-5-methyl-1H-pyrazole-3-carboxamide] | 95 | 352 | – | –
Cc1cc(C(N)=O)nn1-c1ccc2c(ccn2Cc2ccc(-c3ccc(CN4CCN(C)CC4)cc3)cc2)c1 [Example 34-3, 5-methyl-1-(1-((4′-((4-methylpiperazin-1-yl)methyl)-[1,1′-biphenyl]-4-yl)methyl)-1H-indol-5-yl)-1H-pyrazole-3-carboxamide] | 131 | 266 | – | –
Cc1nc(C(N)=O)nn1-c1ccc2c(ccn2Cc2ccc([C@@H]3C[C@@H]4CN(C)C[C@@H]4C3)cc2)c1 [Example 27, 5-methyl-1-(1-(4-((3aR,5r,6aS)-2-methyloctahydrocyclopenta[c]pyrrol-5-yl)benzyl)-1H-indol-5-yl)-1H-1,2,4-triazole-3-carboxamide] | 224 | 947 | – | –
Cc1cc(C(N)=O)nn1-c1ccc2c(ccn2Cc2ccc(C3CCC4(CC3)CN(C)C4)cc2)c1 [Example 16-4, 5-methyl-1-(1-(4-(2-methyl-2-azaspiro[3.5]nonan-7-yl)benzyl)-1H-indol-5-yl)-1H-pyrazole-3-carboxamide] | 186 | 756 | – | –
Cc1cc(C(N)=O)nn1-c1ccc2c(ccn2Cc2ccc(C3=CCN(C)CC3C)cc2)c1 (stereo not shown) [Example 17-1, 1-(1-(4-(1,3-dimethyl-1,2,3,6-tetrahydropyridin-4-yl)benzyl)-1H-indol-5-yl)-5-methyl-1H-pyrazole-3-carboxamide] | 102 | 460 | – | –
Cc1cc(C(N)=O)nn1-c1ccc2c(ccn2Cc2ccc(-c3ccc(CO)cc3)cc2)c1 [Example 1-32, 1-(1-((4′-(hydroxymethyl)-[1,1′-biphenyl]-4-yl)methyl)-1H-indol-5-yl)-5-methyl-1H-pyrazole-3-carboxamide] | 205 | 578 | – | –
Cc1nc(C(N)=O)nn1-c1ccc2c(ccn2Cc2ccc(-c3ccc(CN4CCCC4)cc3)cc2)c1 [Example 28, 5-methyl-1-(1-((4′-(pyrrolidin-1-ylmethyl)-[1,1′-biphenyl]-4-yl)methyl)-1H-indol-5-yl)-1H-1,2,4-triazole-3-carboxamide] | 87 | 251 | – | –
Cc1cc(C(N)=O)nn1-c1ccc2c(ccn2Cc2ccc(-c3cnc(N(C)C)nc3)cc2)c1 [Example 1-36, 1-(1-(4-(2-(dimethylamino)pyrimidin-5-yl)benzyl)-1H-indol-5-yl)-5-methyl-1H-pyrazole-3-carboxamide] | 477 | 1050 | – | –
Cc1cc(C(N)=O)nn1-c1ccc2c(ccn2Cc2ccc(N3CCNCC3)cc2)c1 [Example 11-1, 5-methyl-1-(1-(4-(piperazin-1-yl)benzyl)-1H-indol-5-yl)-1H-pyrazole-3-carboxamide] | 4080 | > 10000 | – | –
Cc1cc(C(N)=O)nn1-c1ccc2c(ccn2Cc2ccc(C3=CCN(S(C)(=O)=O)CC3)cc2)c1 [Example 4, 5-methyl-1-(1-(4-(1-(methylsulfonyl)-1,2,3,6-tetrahydropyridin-4-yl)benzyl)-1H-indol-5-yl)-1H-pyrazole-3-carboxamide] | 109 | 306 | – | –
Cc1cc(C(N)=O)nn1-c1ccc2c(ccn2Cc2ccc(-c3ccc4nccn4c3)cc2)c1 [Example 1-7, 1-(1-(4-(imidazo[1,2-a]pyridin-6-yl)benzyl)-1H-indol-5-yl)-5-methyl-1H-pyrazole-3-carboxamide] | 194 | 680 | – | –
Cc1cn(Cc2ccc([C@@H]3C[C@@H]4CN(C)C[C@@H]4C3)cc2)c2ccc(-n3nc(C(N)=O)cc3C)cc12 [Example 43, 5-Methyl-1-(3-methyl-1-(4-((3aR,5r,6aS)-2-methyloctahydrocyclopenta[c]pyrrol-5-yl)benzyl)-1H-indol-5-yl)-1H-pyrazole-3-carboxamide] | 215 | 740 | – | –
CC(=O)N1CC=C(c2ccc(Cn3ccc4cc(-n5nc(C(N)=O)cc5C)ccc43)cc2)CC1 [Example 1-4, 1-(1-(4-(1-acetyl-1,2,3,6-tetrahydropyridin-4-yl)benzyl)-1H-indol-5-yl)-5-methyl-1H-pyrazole-3-carboxamide] | 121 | 252 | – | –
Cc1cc(C(N)=O)nn1-c1ccc2c(c1)c(C1CCOCC1)cn2Cc1ccc(-c2ccc(S(C)(=O)=O)cc2)cc1 [Example 20, 5-methyl-1-(1-((4′-(methylsulfonyl)-[1,1′-biphenyl]-4-yl)methyl)-3-(tetrahydro-2H-pyran-4-yl)-1H-indol-5-yl)-1H-pyrazole-3-carboxamide] | 68 | 186 | – | –
Cc1cc(C(N)=O)nn1-c1ccc2c(ccn2Cc2ccc(-c3ccc4cnn(C)c4c3)cc2)c1 [Example 1-22, 5-methyl-1-(1-(4-(1-methyl-1H-indazol-6-yl)benzyl)-1H-indol-5-yl)-1H-pyrazole-3-carboxamide] | 167 | 507 | – | –
